Key:
[1] = molecular target: T1, Fatty-acid amide hydrolase 1 (Mus musculus, UniProt O08914); experiment: Inhibitory potency of Fatty-acid amide hydrolase with Mouse brain membrane
T1 sequence (O08914 whole entry): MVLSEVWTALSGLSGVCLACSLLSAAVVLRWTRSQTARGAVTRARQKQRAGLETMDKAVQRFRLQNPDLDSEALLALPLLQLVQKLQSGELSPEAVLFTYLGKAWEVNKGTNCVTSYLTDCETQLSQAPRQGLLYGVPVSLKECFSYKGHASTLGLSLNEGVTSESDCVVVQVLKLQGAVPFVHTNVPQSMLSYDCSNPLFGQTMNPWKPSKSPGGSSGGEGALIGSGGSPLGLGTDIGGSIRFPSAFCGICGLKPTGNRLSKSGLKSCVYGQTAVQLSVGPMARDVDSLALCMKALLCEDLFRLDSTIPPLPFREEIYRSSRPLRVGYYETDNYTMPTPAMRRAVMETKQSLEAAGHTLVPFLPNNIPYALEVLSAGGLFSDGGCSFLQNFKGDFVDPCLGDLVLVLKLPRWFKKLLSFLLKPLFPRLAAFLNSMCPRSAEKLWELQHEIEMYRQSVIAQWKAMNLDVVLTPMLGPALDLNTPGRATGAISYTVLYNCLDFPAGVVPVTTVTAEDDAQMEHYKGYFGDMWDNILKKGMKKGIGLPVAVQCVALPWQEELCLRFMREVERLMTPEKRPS

Cannabinoid receptor 1 [2] = molecular target: Cannabinoid receptor 1 (Rattus norvegicus, UniProt P20272); experiment: Binding affinity towards Cannabinoid receptor 1 was determined using [3H]-CP- cannabinoid as radioligand with rat brain membrane
Sequence of Cannabinoid receptor 1 (Rattus norvegicus, UniProt P20272) (P20272 whole entry): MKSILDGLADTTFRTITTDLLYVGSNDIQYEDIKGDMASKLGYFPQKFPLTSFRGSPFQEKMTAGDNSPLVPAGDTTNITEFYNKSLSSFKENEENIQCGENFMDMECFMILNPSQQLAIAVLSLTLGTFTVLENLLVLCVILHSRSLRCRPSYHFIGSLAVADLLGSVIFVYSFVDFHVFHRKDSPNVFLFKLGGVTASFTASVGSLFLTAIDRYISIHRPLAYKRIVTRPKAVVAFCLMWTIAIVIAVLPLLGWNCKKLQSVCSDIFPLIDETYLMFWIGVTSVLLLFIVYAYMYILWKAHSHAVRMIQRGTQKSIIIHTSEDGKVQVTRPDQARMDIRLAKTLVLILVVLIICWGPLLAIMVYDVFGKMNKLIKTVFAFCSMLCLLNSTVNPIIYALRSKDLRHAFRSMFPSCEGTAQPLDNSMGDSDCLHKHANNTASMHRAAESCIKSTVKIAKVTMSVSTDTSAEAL

[3] = molecular target: T2, Fatty-acid amide hydrolase 1 (Rattus norvegicus, UniProt P97612); experiment: Inhibitory potency of Fatty-acid amide hydrolase with rat brain membrane
T2 sequence (P97612 whole entry): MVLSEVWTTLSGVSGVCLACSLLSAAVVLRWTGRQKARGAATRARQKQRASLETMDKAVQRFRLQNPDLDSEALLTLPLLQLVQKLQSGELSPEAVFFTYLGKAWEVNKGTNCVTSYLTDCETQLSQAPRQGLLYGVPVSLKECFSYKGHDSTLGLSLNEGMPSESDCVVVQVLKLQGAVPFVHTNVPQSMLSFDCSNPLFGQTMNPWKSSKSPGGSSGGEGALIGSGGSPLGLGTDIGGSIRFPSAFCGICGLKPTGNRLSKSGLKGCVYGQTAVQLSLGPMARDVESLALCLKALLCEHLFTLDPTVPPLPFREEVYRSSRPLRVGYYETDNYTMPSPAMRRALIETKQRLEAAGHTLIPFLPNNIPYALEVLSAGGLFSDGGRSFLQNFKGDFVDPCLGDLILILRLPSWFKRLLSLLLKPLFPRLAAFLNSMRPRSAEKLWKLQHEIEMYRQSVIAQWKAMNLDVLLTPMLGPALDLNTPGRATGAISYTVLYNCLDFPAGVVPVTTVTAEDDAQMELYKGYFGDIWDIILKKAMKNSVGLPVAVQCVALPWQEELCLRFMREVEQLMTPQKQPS

Cannabinoid receptor 1 [4] = molecular target: Cannabinoid receptor 1 (Mus musculus, UniProt P47746); experiment: Binding affinity towards Cannabinoid receptor 1 was determined using [3H]-CP- cannabinoid as radioligand with mouse brain membrane in the presence of PMSF
Sequence of Cannabinoid receptor 1 (Mus musculus, UniProt P47746) (P47746 whole entry): as the sequence (P20272 whole entry) above, with E95D counted along it

[5] = molecular target: T1, Fatty-acid amide hydrolase 1; experiment: Inhibitory potency of Fatty-acid amide hydrolase with Mouse brain membrane in the presence of PMSF

Q: With `CCCCC/C=C\C/C=C\C/C=C\C/C=C\CCCCS(=O)(=O)F` as the compound, how does the IC50 [1] read?
A: Its IC50 is 0.11 nM.

Q: For `CCCCCCCCCCCCS(=O)(=O)F` [DODECANESULFONYL FLUORIDE], which IC50 (Cannabinoid receptor 1 [2]) is on record?
A: Its IC50 is 18 nM.

Q: What about the IC50 [3] of the same compound?
A: The IC50 was 3 nM.

Q: What about the IC50 [1] of the same compound?
A: Its IC50 is 2 nM.

Q: Which results are given for `CCCCC/C=C\C/C=C\C/C=C\C/C=C\CCCCS(=O)(=O)NCCO`?
A: IC50 (Cannabinoid receptor 1 [4]): > 100000 nM; IC50 [5]: ~10000 nM

— ChEMBL document CHEMBL1136242, “Arachidonylsulfonyl derivatives as cannabinoid CB1 receptor and fatty acid amide hydrolase inhibitors” (Bioorg Med Chem Lett, 2003)
